Measurements from patent publication USRE38257E1, “Piperdine derivatives and hypotensives containing the same” (Ajinomoto Co., Inc., priority 1988, dated 2003).

System: male spontaneously hypertensive rats
Experiment: Decrease in systolic blood pressure in spontaneously hypertensive rats after intravenous bolus injection, indirect (tail-cuff) method
Type: in vivo, rat
Conditions: for Decrease in systolic blood pressure (mmHg) time after administration (hour) 0.5: 0.5 hour after administration; for Decrease in systolic blood pressure (mmHg) time after administration (hour) 4: 4 hours after administration
Procedure: As test animals, four male spontaneously hypertensive rats (weight 400 to 440 g) that were sufficiently adapted for feeding and in which hypertension was confirmed were used.
Physiological saline aqueous solution containing 2.5% Nicolle and 2.5% ethanol of sample was intravenously administered by bolus injection at a dose of 1 ml per 1 kg of body weight. Systolic blood pressure after administration was measured by the indirect (tail-cuff) method.

Row | Compound | Decrease in systolic blood pressure (mmHg) time after administration (hour) 0.5 (dose 3 mg/kg i.v. bolus) | Decrease in systolic blood pressure (mmHg) time after administration (hour) 4 (dose 3 mg/kg i.v. bolus) | Decrease in systolic blood pressure (mmHg) time after administration (hour) 0.5 (dose 10 mg/kg i.v. bolus) | Decrease in systolic blood pressure (mmHg) time after administration (hour) 4 (dose 10 mg/kg i.v. bolus) | other results
1 | CC(=O)Oc1ccc(C=CCN2CCC(=C3c4ccccc4C=Cc4ccccc43)CC2)cc1.Cl [Example 364, 1-(4-Acetoxycinnamyl)-4-(5H-Dibenzo[a,d]cyclohepten-5-ylidene)piperidine hydrochloride] | – | – | – | – | Decrease in systolic blood pressure (mmHg) time after administration (hour) 0.5 (dose 1 mg/kg i.v. bolus): −113 mmHg
2 | COc1cc(C=CCN2CCC(=C3c4ccccc4C=Cc4ccccc43)CC2)ccc1O.Cl [Example 365, 4-(5H-Dibenzo[a,d]cyclohepten-5-ylidene)-1-(4-hydroxy-3-methoxycinnamyl)piperidine hydrochloridine] | −80 mmHg | −56 mmHg | – | – | –
3 | COc1cc(C=CCN2CCC(=C3c4ccccc4C=Cc4ccccc43)CC2)ccc1OC(C)=O.Cl [Example 366, 1-(4-Acetoxy-3-methoxycinnamyl)-4-(5H-Dibenzo[a,d]cyclohepten-5-ylidene)-1-piperidine hydrochloride] | −152 mmHg | −113 mmHg | – | – | –
4 | Cl.Oc1cccc(C=CCN2CCC(=C3c4ccccc4C=Cc4ccccc43)CC2)c1 [Example 367, 4-(5H-Dibenzo[a,d]cyclohepten-5-ylidene)-1-(3-hydroxycinnamyl)piperidine hydrochloride] | – | – | −98 mmHg | −63 mmHg | –
5 | CC(=O)Oc1cccc(C=CCN2CCC(=C3c4ccccc4C=Cc4ccccc43)CC2)c1.Cl [Example 368, 1-(3-Acetoxycinnamyl)-4-(5H-Dibenzo[a,d]cyclohepten-5-ylidene)piperidine hydrochloride] | −110 mmHg | −68 mmHg | – | – | –
6 | COCC(=O)Oc1cccc(C=CCN2CCC(=C3c4ccccc4C=Cc4ccccc43)CC2)c1.Cl [Example 369, 4-(5H-Dibenzo[a,d]cyclohepten-5-ylidene)-1-(3-(2-methoxyacetoxy)cinnamyl)piperidine hydrochloride] | – | – | −101 mmHg | −83 mmHg | –
7 | CCC(=O)Nc1ccc(C=CCN2CCC(=C3c4ccccc4C=Cc4ccccc43)CC2)cc1.Cl [Example 370, 4-(5H-Dibenzo[a,d]cyclohepten-5-ylidene)-1-(4-propanoylaminocinnamyl)piperidine hydrochloride] | – | – | −99 mmHg | −69 mmHg | –
8 | COC(=O)c1ccccc1C=CCN1CCC(=C2c3ccccc3C=Cc3ccccc32)CC1.Cl [Example 374, 4-(5H-Dibenzo[a,d]cyclohepten-5-ylidene)-1-(2-methoxycarbonylcinnamyl)piperidine hydrochloride] | −119 mmHg | 11 mmHg | – | – | –
9 | COC(=O)c1cccc(C=CCN2CCC(=C3c4ccccc4C=Cc4ccccc43)CC2)c1.Cl [Example 375, 4-(5H-Dibenzo[a,d]cyclohepten-5-ylidene)-1-(3-methoxycarbonylcinnamyl)piperidine hydrochloride] | – | – | – | – | Decrease in systolic blood pressure (mmHg) time after administration (hour) 0.5 (dose 1 mg/kg i.v. bolus): −126 mmHg; Decrease in systolic blood pressure (mmHg) time after administration (hour) 4 (dose 1 mg/kg i.v. bolus): −70 mmHg
10 | COC(=O)c1ccc(C=CCN2CCC(=C3c4ccccc4C=Cc4ccccc43)CC2)cc1.Cl [Example 376, 4-(5H-Dibenzo[a,d]cyclohepten-5-ylidene)-1-(4-methoxycarbonylcinnamyl)piperidine hydrochloride] | −106 mmHg | −77 mmHg | – | – | –
11 | COc1cccc(C=CCN2CCC(=C3c4ccccc4C=Cc4ccccc43)CC2)c1[N+](=O)[O-].Cl [Example 377] | – | – | – | – | Decrease in systolic blood pressure (mmHg) time after administration (hour) 0.5 (dose 1 mg/kg i.v. bolus): −151 mmHg; Decrease in systolic blood pressure (mmHg) time after administration (hour) 4 (dose 1 mg/kg i.v. bolus): −73 mmHg
12 | COC(=O)Nc1ccc(C=CCN2CCC(=C3c4ccccc4C=Cc4ccccc43)CC2)cc1.Cl [Example 378, 4-(5H-Dibenzo[a,d]cyclohepten-5-ylidene)-1-(4-methoxycarbonylaminocinnamyl)piperidine hydrochloride] | – | – | – | – | Decrease in systolic blood pressure (mmHg) time after administration (hour) 0.5 (dose 1 mg/kg i.v. bolus): −106 mmHg; Decrease in systolic blood pressure (mmHg) time after administration (hour) 4 (dose 1 mg/kg i.v. bolus): −90 mmHg
13 | CC(C)(C)C(=O)Nc1ccc(C=CCN2CCC(=C3c4ccccc4C=Cc4ccccc43)CC2)cc1.Cl [Example 379] | – | – | – | – | Decrease in systolic blood pressure (mmHg) time after administration (hour) 0.5 (dose 1 mg/kg i.v. bolus): −118 mmHg; Decrease in systolic blood pressure (mmHg) time after administration (hour) 4 (dose 1 mg/kg i.v. bolus): −59 mmHg
14 | Cl.O=C(Nc1ccc(C=CCN2CCC(=C3c4ccccc4C=Cc4ccccc43)CC2)cc1)C(F)(F)F [Example 380, 4-(5H-Dibenzo[a,d]cyclohepten-5-ylidene)-1-(4-trifluoroacetylaminocinnamyl)piperidine hydrochloride] | – | – | – | – | Decrease in systolic blood pressure (mmHg) time after administration (hour) 0.5 (dose 0.3 mg/kg i.v. bolus): −141 mmHg
15 | CCCC(=O)Nc1ccc(C=CCN2CCC(=C3c4ccccc4C=Cc4ccccc43)CC2)cc1.Cl [Example 381, 1-(4-Butanoylaminocinnamyl)-4-(5H-Dibenzo[a,d]cyclohepten-5-ylidene)piperidine hydrochloride] | −136 mmHg | – | – | – | –
16 | CCOC(=O)c1ccc(C=CCN2CCC(=C3c4ccccc4C=Cc4ccccc43)CC2)cc1.Cl [Example 382, 4-(5H-Dibenzo[a,d]cyclohepten-5-ylidene)-1-(4-ethoxycarbonylcinnamyl)piperidine hydrochloride] | −129 mmHg | −74 mmHg | – | – | –
17 | COCC(=O)Oc1ccc(C=CCN2CCC(=C3c4ccccc4C=Cc4ccccc43)CC2)cc1.Cl [Example 383, 4-(5H-Dibenzo[a,d]cyclohepten-5-ylidene)-1-(4-(2-methoxyacetoxy)cinnamyl)piperidine hydrochloride] | −112 mmHg | −86 mmHg | – | – | –
18 | C1=Cc2ccccc2C(=C2CCN(Cc3cc4ccccc4[nH]3)CC2)c2ccccc21.Cl [Example 385, 4-(5H-Dibenzo[a,d]cyclohepten-5-ylidene)-1-(2-indolylmethyl)piperidine hydrochloride] | – | – | −123 mmHg | −96 mmHg | –
19 | Cl.NS(=O)(=O)c1ccc(C=CCN2CCC(=C3c4ccccc4C=Cc4ccccc43)CC2)cc1 [Example 386, 1-(4-Aminosulfonylcinnamyl)-4-(5H-Dibenzo[a,d]cyclohepten-5-ylidene)piperidine hydrochloride] | – | – | −83 mmHg | −96 mmHg | –
20 | COc1cc(C=CCN2CCC(=C3c4ccccc4C=Cc4ccccc43)CC2)ccc1[N+](=O)[O-].Cl [Example 387, 4-(5H-Dibenzo[a,d]cyclohepten-5-ylidene)-1-(3-methoxy-4-nitrocinnamyl)piperidine hydrochloride] | – | – | −112 mmHg | −50 mmHg | –
21 | N-(2-(5H-Dibenzo[a,d]cyclohepten-5-ylidene)-1-piperidinyl)ethyl isonicotinamide hydrochloride [Example 244] | – | – | −19 mmHg | 4 mmHg | –
